These results are taken from patent publication US9845327B2, “Treatment of proteinopathies” (THE GENERAL HOSPITAL CORPORATION, priority 2011, dated 2017).

Data set [1] concerns primary cortical neurons. The experiment in a line: Neurotoxicity assessment (neurofilament immunostaining, neuronal volume) in primary cortical neurons expressing human WT α-synuclein. The format is cell-based.
Data set [2] deals with α-synuclein. The data set can be described thus: α-synuclein solubility and oligomers (sequential extraction/western blot, native SEC, immunostaining) in primary cortical neurons. In kind it is cell-based. As to the method:
(§1) As discussed above, the increased α-synuclein levels and toxicity that occur with GCase polypeptide depletion may result from generalized lysosomal inhibition or may be due to alterations in GlcCer lipid metabolism. To distinguish between these two possibilities, in this Example, the lysosomal protein degradation was inhibited with leupeptin in WT α-synuclein-expressing neurons and the neurotoxicity was assessed. […] Thus, despite similar effects on the total α-synuclein levels by leupeptin or GCase polypeptide KD, only GCase polypeptide KD increased the steady-state levels of soluble HMW α-synuclein. In this Example, sequential extraction followed by SDS-PAGE/Coomassie brilliant blue (CBB) staining was used to determine the effect of leupeptin treatment on the solubility of total cellular proteins.
(§2) Cells were harvested in Triton X-100 lysis buffer. The extracts were centrifuged at 100,000×g for 30 min. The pellets were extracted in 2% SDS buffer. Similar procedures were utilized for mouse and human brain tissues, using 20 volumes of Triton X-100 lysis buffer. Samples were loaded onto SDS-PAGE gels or subjected to native SEC followed by western blot analysis as described below (Mazzulli et al., J. Neurosci. 26:10068, 2006).
Infected cortical cells (8,000,000 cells/10 cm plate) were harvested in Triton X-100 lysis buffer and 100,000×g Triton X-100 soluble lysate was loaded onto a Superdex 200 HR 10/300 column (GE healthcare) as described previously (Mazzulli et al., J. Neurosci. 26:10068, 2006). Quantification of α-synuclein oligomers has been described in detail previously (Tsika et al., J. Neurosci. 30: 3409, 2010).
Cortical cells grown on poly-D-lysine coated coverslips in 12 well clusters were washed very briefly in warm PBS followed by rapid fixation in PBS-buffered 4% paraformaldehyde (w/v) for 15 min. Cells were incubated with PBS containing 0.3% (v/v) Triton X-100 overnight at 4° C., then blocked in 2% (w/v) bovine serum albumin (BSA) (Sigma-Aldrich, # A-7906) and 10% normal goat serum (Jackson Immunoresearch Laboratories, #005-000-121) in PBS-Triton X-100 for 1 hr. Primary antibodies were diluted into blocking buffer (see above for dilutions), incubated overnight at 4° C., and washed extensively in PBS-Triton X-100. […] Coverslips were mounted onto glass slides with 10 μl of 4,6-diamidino-2-phenylindole dihydrochloride (DAPI)-containing Fluoromount G (Southern Biotech, #0100-20) and visualized with a fluorescence microscope. For quantification of α-synuclein and LC3 immunostaining, pixels from equal-time exposed images were quantified using Adobe Photoshop software CS2 (Adobe Systems), and normalized to DAPI.
(In general: In western blotting, separated proteins are transferred to a membrane and probed.)

A further data set concerns total cellular proteins. The experiment in a line: Total cellular protein solubility by sequential extraction, SDS-PAGE and Coomassie brilliant blue staining. In kind it is cell-based, mouse. The note with it: leupeptin treatment. The method, then:
as §1, §2

The test system of a further data set is LC3-II. The experiment in a line: LC3-II western blot in primary cortical neurons. The format is cell-based, mouse. The note with it: leupeptin compared with GCase polypeptide KD. The method, then:
as §1
Most materials for SDS-PAGE were obtained from Invitrogen (NuPAGE system). […] Blots were blocked in Odyssey blocking buffer (Li-Cor biosciences) containing 0.05% Tween, or 5% non-fat dry milk in TBS-T 0.2%, followed by incubation with primary antibodies (see above for dilutions), and detected with anti-mouse or -rabbit IgG conjugated to IRDye 680 or 800 (1:10,000, Li-Cor biosciences). […] Any nonspecific bands detected were not included in densitometric analyses. […]

In data set [3] the test system is α-synuclein/LAMP1 colocalized puncta. The experiment in a line: Immunostaining of α-synuclein and LAMP1, condensed nuclei count in primary neurons. The format is cell-based. As to the method:
Next in this Example, the effect of GlcCer on α-synuclein fibril formation was assessed under acidic conditions (pH 5.0, 37° C.), to simulate a lysosome-like environment in vitro because the neuronal culture data had indicated increased colocalization of α-synuclein with LAMP1 upon GCase polypeptide KD (FIGS. 5H and 5I). […] An increased frequency of condensed nuclei in WT α-synuclein/GC-depleted cells, compared to WT α-synuclein/scrb shRNA cells (panel H), was consistent with a decline in neuronal viability. […] The α-synuclein detected in P2 was in the form of a T-sol 18 kDa monomer (panel I, left), as well as T-insoluble monomer and multimers (panel I, right).
Cortical cells grown on poly-D-lysine coated coverslips in 12 well clusters were washed very briefly in warm PBS followed by rapid fixation in PBS-buffered 4% paraformaldehyde (w/v) for 15 min. […] Coverslips were mounted onto glass slides with 10 μl of 4,6-diamidino-2-phenylindole dihydrochloride (DAPI)-containing Fluoromount G (Southern Biotech, #0100-20) and visualized with a fluorescence microscope. For quantification of α-synuclein and LC3 immunostaining, pixels from equal-time exposed images were quantified using Adobe Photoshop software CS2 (Adobe Systems), and normalized to DAPI.

In data set [4] the test system is primary cortical neurons. The experiment in a line: Proteolysis of long-lived proteins by radioactive pulse-chase in primary cortical neurons. The format is cell-based, mouse. The note with it: added to GCase polypeptide KD. As to the method:
In this Example, a test was conducted to determine whether GCase polypeptide KD affects a lysosomal degradation pathway. In this test, neurons were treated with the well-established lysosomal inhibitors ammonium chloride (NH4Cl) and leupeptin.
Proteolysis of long-lived proteins was determined by radioactive pulse-chase using ^3H-leucine. This procedure was performed as described previously (Kaushik et al. Methods Enzymol. 452: 297, 2009). Briefly, cortical cells were grown in 24 well clusters seeded at 33000 cells/well and infected at moi 3 with scrb or GCase polypeptide shRNA expressing lentiviral vectors. On dpi 4, ^3H-leucine (PerkinElmer, # NET460A001 MC, final 5 μCi/ml) was added in standard neurobasal medium containing B27 for 2 days to trace label proteins. […] Samples were centrifuged at 20,000×g for 20 min, 4° C., and the radioactivity was measured in 5 ml of scintillation cocktail using a Beckman LS 1701 liquid scintillation counter (Beckman Instruments). Precipitated protein pellets were extracted in 200 μl of Na deoxycholate, 0.1 M NaOH, and radioactivity was determined. Percent proteolysis was calculated as described in detail elsewhere (Kaushik et al. Methods Enzymol. 452: 297, 2009). […]

The next data set concerns Hela cells. The experiment in a line: Lysosomal proteolysis by radioactive pulse-chase in transfected Hela cells. The format is cell-based. The method, then: (§3) Further in this Example, it was assessed whether GCase polypeptide overexpression had the ability to directly enhance lysosomal proteolysis in a non-neuronal cell line. Hela cells were transfected with a myc-tagged GCase polypeptide expression construct and lysosomal proteolysis was assessed by radioactive pulse-chase (FIG. 17A). […] This effect was also confirmed through a different assay, by measuring the effect of GCase polypeptide overexpression on the activity of the lysosomal protease cathepsin B. A cell-permeable fluorescent-tagged cathepsin B substrate (MAGIC RED cathepsin detection kit, Immunochemistry Technologies) was added to transfected Hela cells, and degradation of this substrate was determined in living cells after substrate wash-out.

For data set [5], the system named is α-synuclein. The experiment in a line: α-synuclein levels by western blot in human midbrain iPS dopamine neurons. The format is cell-based. The following applies: lentiviral overexpression, moi 5, human PD dopamine neurons (Coriell line ND27760, SNCA triplication). The text has this: In this Example, it was investigated whether enhancement of lysosomal enzyme trafficking through stimulation of the secretory pathway would result in increased lysosomal function and reduction of α-synuclein. Therefore, in this Example the small GTPase Rab1a polypeptide was overexpressed by lentiviral infection in iPS neurons to stimulate enzyme trafficking. Rab1a polypeptide has been established to function specifically at the ER-Golgi step of the secretory pathway (Duvernay et al., Cell Signal 17: 1457, 2005). The effect of Rab1a polypeptide was determined in human iPS dopamine neurons derived from reprogrammed fibroblasts of a PD patient (Coriell line ND27760). These cells harbor a triplication mutation in the genomic region containing SNCA which encodes for α-synuclein, leading to overexpression of the protein and lysosomal trafficking deficits. […] Further in this Example, it was determined if Rab1a polypeptide enhances lysosomal function by monitoring cathepsin B activity.
It was also shown in this Example that treatment with the GCase polypeptide activator increased the levels of total GCase protein and increased the post-ER forms, indicating enhancement of flux to the lysosome (FIG. 19B).
Most materials for SDS-PAGE were obtained from Invitrogen (NuPAGE system). Protein lysates were boiled in sample buffer (20 mM Tris, 1% (v/v) glycerol, 180 mM β-mercaptoethanol, 0.003% (w/v) bromophenol blue, 2% (w/v) SDS, pH 6.8), resolved on 4%-12% Bis-Tris polyacrylamide precast gels in a MOPS-SDS running buffer, or 4%-12% Tris-Glycine gels. 10% Tris-Glycine gels were utilized for some GCase polypeptide western blot's (FIGS. 13B, 13D, and 13E, and FIGS. 14C and 14F). […] Blots were blocked in Odyssey blocking buffer (Li-Cor biosciences) containing 0.05% Tween, or 5% non-fat dry milk in TBS-T 0.2%, followed by incubation with primary antibodies (see above for dilutions), and detected with anti-mouse or -rabbit IgG conjugated to IRDye 680 or 800 (1:10,000, Li-Cor biosciences). […] Any nonspecific bands detected were not included in densitometric analyses. […]

Another data set concerns cathepsin B. The data set can be described thus: Cathepsin B activity in living transfected Hela cells (fluorescent substrate). The format is cell-based. The following applies: overexpression in transfected Hela cells, versus GFP. The method, then: as §3
In this Example, it was investigated whether enhancement of lysosomal enzyme trafficking through stimulation of the secretory pathway would result in increased lysosomal function and reduction of α-synuclein. Therefore, in this Example the small GTPase Rab1a polypeptide was overexpressed by lentiviral infection in iPS neurons to stimulate enzyme trafficking. […] The effect of Rab1a polypeptide was determined in human iPS dopamine neurons derived from reprogrammed fibroblasts of a PD patient (Coriell line ND27760). […] Further in this Example, it was determined if Rab1a polypeptide enhances lysosomal function by monitoring cathepsin B activity.

Where [6] appears, read: leupeptin-treated WT α-synuclein-expressing neurons.

`CC(=O)N[C@@H](CC(C)C)C(=O)N[C@@H](CC(C)C)C(=O)N[C@H](C=O)CCCNC(=N)N` [leupeptin]: the “neurotoxicity at later time points” value with primary cortical neurons [1] (>12 dpi) is listed as “did result in neurotoxicity”. In the data set with primary cortical neurons [1] (WT α-synuclein-expressing neurons, 50 μM leupeptin, 7 dpi), the α-synuclein-mediated neurotoxicity result is recorded as “did not enhance”. Besides, in the data set on α-synuclein [2] (setting [6]), the “T-insoluble α-synuclein” value is listed as “increase” and the “amount of soluble α-synuclein” value was “no change”. The “total α-synuclein immunostaining intensity” value with α-synuclein [2] (leupeptin-treated compared to control cells) is “increase”. Also, in the data set on α-synuclein [2] (leupeptin-treated neurons), the “soluble HMW α-synuclein by SEC” value was “not detectable”. Also, in the data set on total cellular proteins, the “levels of total insoluble proteins, fold increase” value is recorded as roughly 2 fold. Further, the “levels of LC3-II” value with LC3-II is given as “comparable increase”. Moreover, the “percentage of cells with condensed nuclei compared to untreated control cells” value in data set [3] (7 dpi) is given as “did not alter”. For the same molecule, in data set [3] (leupeptin-treated cells), the “percentage of cells containing α-synuclein/LAMP1 colocalized puncta” value is on record as roughly 90%. Besides, the “proteolysis of long-lived proteins in GCase polypeptide shRNA-treated cells” value in the data set on primary cortical neurons [4] is on record as “did not additively inhibit”. Besides, the “effect of lysosomal inhibitors on the proteolysis increase by GCase polypeptide overexpression” value in the data set on Hela cells is “completely reversed”.
For “Rab1a polypeptide: small GTPase overexpressed by lentiviral infection or transfection; SEQ ID NO. 13”, in the data set with α-synuclein [5], the α-synuclein levels result is on record as “dramatic reduction”. Further, the “cathepsin B activity” value with cathepsin B is given as “increase”.

B1: GCase polypeptide: myc-tagged GCase polypeptide expression construct transfected into Hela cells (protein, UniProt P04062 40-536, looked up)
Lysosomal acid …: ARPCIPKSFGYSSVVCVCNATYCDSFDPPTFPALGTFSRYESTRSGRRMELSMGPIQANHTGTGLLLTLQPEQKFQKVKGFGGAMTDAAALNILALSPPAQNLLLKSYFSEEGIGYNIIRVPMASCDFSIRTYTYADTPDDFQLHNFSLPEEDTKLKIPLIHRALQLAQRPVSLLASPWTSPTWLKTNGAVNGKGSLKGQPGDIYHQTWARYFVKFLDAYAEHKLQFWAVTAENEPSAGLLSGYPFQCLGFTPEHQRDFIARDLGPTLANSTHHNVRLLMLDDQRLLLPHWAKVVLTDPEAAKYVHGIAVHWYLDFLAPAKATLGETHRLFPNTMLFASEACVGSKFWEQSVRLGSWDRGMQYSHSIITNLLYHVVGWTDWNLALNPEGGPNWVRNFVDSPIIVDITKDTFYKQPMFYHLGHFSKFIPEGSQRVGLVASQKNDLDAVALMHPDGSAVVVVLNRSSKDVPLTIKDPAVGFLETISPGYSIHTYLWRRQ
modifications: myc tag
notes: myc-tagged GCase polypeptide expression construct transfected into Hela cells
For B1, in the data set on Hela cells (myc-tagged GCase polypeptide expression construct), the “increase in proteolysis compared to GFP control transfected cells” value worked out at 40%. For the same molecule, in the data set with cathepsin B, the “cathepsin B activity” value is “increased”.
